Results as given in patent publication US20240325319A1, “INHIBITORS OF AMYLOID BETA OLIGOMERIZATION AND THERAPEUTIC USES THEREOF” (Northwestern University, priority 2021, published 2024).
Where “and” joins values, the source holds several entries; their conditions need not be identical. Identical values can stand only once. Entries after “also recorded” stand apart in the source; their conditions may differ.

Experiments:
5×FAD mice = test: Memory performance (novel object preference) in 5×FAD mice; type: in vivo
Protocol: FIG. 7. […] Preliminary results obtained in 11 month old mice treated with NU-9 for 4 weeks. Memory performance was evaluated before and after treatment with vehicle or NU-9.
In a preliminary experiment using a mouse model of Alzheimer's disease, NU-9 protected against memory loss. Twelve 5×FAD mice were bred on the slow-onset background. These animals received either vehicle control or NU-9 by gavage (20 mg/kg) daily for one month. In the control group, all animals failed the memory task, showing no preference for the novel object. […] (FIG. 7).

AβOs bound to neurons [1] = test: AβOs bound to dendrites of hippocampal neurons treated with Aβ42 monomer (immunofluorescence, NU2/NU4); type: cell-based, rat
Protocol: Neurons were pre-treated with 3 μM NU-9 for 30 min, then treated with Aβ42 monomer for 24 hr. Cells were fixed with 3.7% formaldehyde and stained for AβOs (NU4, green), tau phosphorylated at Ser396 (pSer396, red) and mounted on slides before imaging.
Cells were fixed with 3.7% formaldehyde and stained for AβOs (NU4, green), tau phosphorylated at Thr205 (pThr205, red), and nuclei (DAPI, blue) and mounted on slides before imaging.
FIG. 3. Neurons were pre-treated with 3 μM NU-9 for 30 min, then treated with Aβ42 monomer for 30 min. Cells were fixed with 3.7% formaldehyde and stained for AβOs (NU2, green), β-II tubulin (TUBB3, red), and nuclei (DAPI, blue) and mounted on slides before imaging.
FIG. 4. E18 hippocampal neurons were cultured until 21 div and pre-treated with 3, 15, or 30 μM NU-9 for 30 minutes, followed by treatment with 500 nM Aβ42 for 30 minutes. Cells were fixed with 3.7% formaldehyde and stained for AβOs (NU2, green), […] (red) and nuclei (DAPI, blue), and mounted on slides before imaging at 63×.
NU-9 reduces the number of amyloid beta oligomers bound to neurites. Primary rat hippocampal neurons in cell culture were pre-treated with NU-9 for 30 minutes and then treated with amyloid beta 1-42 (Aβ) monomer. […] To characterize the dose-response effect of NU-9 on AβO formation, cells were pretreated with increasing doses of NU-9 (3, 15, and 30 μM), and then treated with Aβ for 30 minutes.
The decrease was 81% (p=0.0005). We further characterized the effect of NU-9, to narrow down potential candidate mechanisms for this effect.

Aβ42 = target: T1, Aβ42 (Homo sapiens, UniProt P05067); test: AβO formation from Aβ monomer in the absence of cells (dot blot, coverslips, fresh or conditioned media); type: biochemical
T1 construct: then treated with amyloid beta 1-42 (Aβ) monomer
T1 sequence (P05067 672-713): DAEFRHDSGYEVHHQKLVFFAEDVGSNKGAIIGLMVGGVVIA
Protocol: FIG. 5. A) NU-9 and Aβ were combined in F12 media, in the absence of cells, and incubated at 37° C. B) The concentration of AβOs was probed with NU2 antibody via dot blot after 24 hours in the conditions containing 3 μM NU-9 with or without Aβ.
FIG. 6. In dishes without cells, but in conditions that mimicked cell culture, 3 μM NU-9 and 500 nM Aβ42 for 30 minutes fixed with 3.7% formaldehyde and stained for AβOs (NU2, green) and mounted on slides before imaging at 63×.
FIG. 9. The effect of NU-9 requires the presence of cells. Conditioned media was collected from mature hippocampal neuron. DMSO control (Control), Aβ monomer (Aβ), or NU-9 and then Aβ (NU-9+Aβ in cond. media) were added, then concentration of AβOs were analyzed by dot blot. Conditioned media was also collected from neurons treated with NU-9, then Aβ was added to this (Media from NU-9 in cells+Aβ). […] Standard curve was created in media using 0-1000 fmol AβOs. The dot blot was labelled with NU2 (anti-AβO).
FIG. 10. […] (Conditioned Media) A dot blot probed with NU2 was used to measure AβO abundance in solutions of conditioned media to which DMSO vehicle (control), Aβ, and NU-9 followed by Aβ were added for 30 min each. The bottom row corresponds to samples in which cells were treated with NU-9 for 30 min, then extracellular media was removed, and Aβ was added to the media for 30 min. The standard curve at the top was made from 0-1000 fmol preformed AβOs. (Fresh Media) A dot blot probed with NU2 was used to measure AβO abundance in solutions of culture media to which DMSO vehicle (control), Aβ, and NU-9 (3-300 μM) followed by Aβ were added for 30 min each. Each of these solutions was prepared in triplicate. The standard curve at the top was made from 0-1000 fmol preformed AβOs.
In the absence of cells, NU-9 has no effect on AβO formation. […] Next, a follow-up experiment was conducted using conditions that more closely mimicked those of cell culture. Coverslips were coated, as usual for cell culture, with poly-D-lysine, and then placed into culture dishes with media. No cells were added. Then 3 μM NU-9 and 500 nM AβOs were added for 30 min. In this assay, the previous result was replicated.
Instead, NU-9 exerts an effect at the cell membrane or intracellularly.

total Aβ species = test: Total Aβ species in neuronal cultures (6E10 immunofluorescence); type: cell-based, rat; conditions: NU-9 3 μM, 30 min, then Aβ monomer 500 nM
Protocol: FIG. 12. […] Mature hippocampal neurons were treated with NU-9 (3 μM, 30 min), then with Aβ monomer (500 nM, 30 min). These were labelled with 6E10 (anti-total Aβ, green) and MAP2 (anti-dendrite). Total number of Aβ particles per images as well as fluorescence intensity of Aβ signal (IntDen) was quantified).
To follow up on this, we treated neurons with NU-9 (3 μM, 30 min) followed by Aβ monomer (500 nM, 30 min) and attempted to observe total Aβ species by dot blot. […] So, instead of using dot blot, we used immunofluorescence, labelling treated neurons for total Aβ species. Using this protocol, we were able to avoid interaction of the antibody with cell culture media, allowing for specific labelling.

AβOs bound to neurons [2] = test: AβOs bound to dendrites of hippocampal neurons treated with Aβ42 monomer (immunofluorescence, NU2/NU4); type: cell-based, rat; remark: listed apart in the source

C[C@H](Oc1cc(C(F)(F)F)cc(C(F)(F)F)c1)C1CC(=O)CC(=O)C1 [NU-9, (S)-5-(1-(3,5-bis(trifluoromethyl)phenoxy)ethyl)cyclohexane-1,3-dione]
motor and exploratory behavior (5×FAD mice; 5×FAD mice treated with vehicle or NU-9 for 4 weeks): normal motor and exploratory behavior | protection against memory loss (preference for novel object) (5×FAD mice; 5×FAD mice, 11 month old, 20 mg/kg by gavage daily for one month, preliminary, 20 mg/kg): mitigated memory loss; also recorded: three of the four mice were protected from memory loss; also recorded: mitigates memory loss in older 5×FAD mice | number of AβOs bound at dendrites (AβOs bound to neurons [1]; 3 μM NU-9 pre-treatment 30 min, then Aβ42 monomer 24-26 hr): significantly decreased the number of AβOs bound at dendrites; also recorded: able to reduce AβO binding in neurons treated with Aβ monomer | AβOs bound to neurons / formation of neuron-binding AβOs (AβOs bound to neurons [1]; 3 μM NU-9 pre-treatment 30 min, then Aβ monomer 500 nM, 30 min): mitigated the formation of neuron-binding AβOs; also recorded: significantly reduced AβOs bound to neurons; also recorded: significantly reduced the formation of neuron binding AβOs | dose-response of AβO suppression (visual analysis of images) (AβOs bound to neurons [1]; 3, 15, or 30 μM NU-9 30 min, then 500 nM Aβ42 30 min): reduced more extensively at higher doses of NU-9; also recorded: More extensive suppression of AβOs was observed at higher concentrations of NU-9 | reduction in AβOs at synapses compared to treatment with Aβ monomer alone (AβOs bound to neurons [1]; NU-9 3 μM, 30 min prior to Aβ monomer 500 nM, 30 min or 24 h): 81% and 55-80% | number of AβOs bound to neurons (AβOs bound to neurons [1]; NU-9 30 min pre-treatment, Aβ monomer 30 min or 24 h): reduces the number of bound amyloid beta oligomers; also recorded: dramatically decreased the number of Aβ oligomers (AβOs) bound to neurons; also recorded: marked reduction in AβOs at synapses; also recorded: effectively reduced the number of pathological species of AβOs | AβO concentration by NU2 dot blot, no cells (Aβ42; 3 μM NU-9 and Aβ in F12 media, 37° C., 24 hours): no change in AβO formation was observed; also recorded: No significant difference was observed | AβOs formed from Aβ monomer in conditioned media of untreated cells (Aβ42; NU-9 3 μM, 30 min added to media, Aβ monomer 500 nM, 30 min): did not reduce the number of AβOs formed from Aβ monomer; also recorded: Aβ was not reduce in any treatment condition | AβO formation from Aβ monomer in fresh media (dot blot) (Aβ42; NU-9 3-300 μM followed by Aβ, 30 min each): did not reduce ABO formation directly; also recorded: does not reduce AβO formation from Aβ monomer in cell-free solution | AβOs formed from Aβ monomer in conditioned media from cells treated with NU-9 (Aβ42; cells treated 3 μM NU-9 30 min, media removed, Aβ added 30 min): also did not reduce the number of AβOs formed from Aβ monomer in the absence of cells | number of AβOs bound to coverslips, no cells (Aβ42; poly-D-lysine coverslips in media, 3 μM NU-9 and 500 nM Aβ42, 30 min): did not affect AβO formation; also recorded: did not significantly affect the number of AβOs bound to coverslips | total Aβ species (particles, IntDen) (total Aβ species): does not reduce total Aβ species observable in neuronal cultures | effect of NU-9 on neuron-binding AβOs in the presence of lysosome inhibitor (AβOs bound to neurons [2]; 100 nM bafilomycin A 30 min, NU-9 3 μM 30 min, Aβ monomer 500 nM 30 min): unable to do so; also recorded: abolished in the presence of a lysosome acidification inhibitor | AβOs bound to dendrites when NU-9 is washed out prior to Aβ monomer (AβOs bound to neurons [2]; NU-9 pre-treatment, washout, then Aβ 500 nM, 30 min): leads to a reduction in AβOs bound to dendrites; also recorded: maintained even when NU-9 was washed out; also recorded: reduced the number of AβOs bound to dendrites; also recorded: remains effective even when it is washed out
